Data taken from patent US8785471B2, “Pharmaceutical composition containing ferulic acid and matrine compounds, the preparation and the use thereof” (Qingdao Qiyuan Bio-Technologies Co., Ltd., priority 2008, dated 2014).
Like-named read-outs stand apart in the source and are kept apart here.

What was measured:
patients with rash = assay: Effect on rash in patients; format: in vivo; settings: 10 patients, 1% applied on rash area, after 10 minutes
Method: Patient selection: 18-25 years old of either gender with rash at both body sides. Each composition was tested on 10 patients. Test was carried out with single-blind and self control. 1% composition or control was applied on rash area at left side of the body, and physiological saline was applied on rash area at the right side. After 10 minutes, the effects were evaluated.
Effect evaluation: Obviously effective if both rash and itching feeling disappear; effective if parts of rash and itching feeling disappear; invalid if both rash and itching feeling keep unchanged.

mice [1] = assay: Anti-inflammatory effect, xylene ear swelling in mice; format: in vivo; settings: xylene on right ear, ear coated with 1% composition, 30 minutes later
Method: Healthy mice were selected, each group containing 10 mice. After weighing and marking, the right ear of the mice was contacted with xylene cotton ball for 5 seconds, leaving the left ear as control. 10 minutes after proinflammatory treatment, the right ear was coated with testing compositions (1%), control ingredients (individual ferulic acid or oxymatrine) or blank control (physiological saline). 30 minutes later, the mice was sacrificed by cervical dislocation. The same volume of tissues was collected from left ear (control) and fight ear (treated with xylene) by hole puncher (diameter: 6 mm), and weighed. The ear swelling percentage was calculated. Ear swelling percentage (%)=(Weight of right ear−Weight of left ear)/Weight of left ear×100%

[2] = test system: type I collagen content of hepatic stellate cells; assay: Type I collagen content of hepatic stellate cells (ELISA kit); format: cell-based, rats; settings: 50 μmol/l, HSC supernatant; mean ± SD
Method: (§1) Materials and reagents: ELISA kit for rats type I collagen, trypsin, fetal bovine serum, etc.
(§2) Methods: Revived hepatic stellate cell (HSC) seeds were placed in a 100 ml plastic incubation flask and incubated in a CO2 incubator (inside 5% CO2, 95% humidity). The medium was discarded when the cells grew into a single layer. Digestion solution (5% trypsin) was added. The digestion solution was removed and centrifuged at 2200 rpm for 7 minutes. The supernatant was discarded, washed and centrifuged with DMEM incubation solution. The cells were suspended in a DMEM solution containing 20% fetal bovine serum, and the cell numbers were counted. The cell suspension was diluted with a DMEM solution and seeded in 96 well culture plate, each well having 100 μl diluted suspension. After 48 hours, the solution was removed and the cells were washed with a DMEM incubation solution containing 10% bovine serum to synchronize the cells at stable phrase. The cells were treated with testing compositions diluted in physiological saline (50 μmol/l). Each treatment tested 6 wells and repeated for 3 times. After 48 hours, incubation was terminated. […] The HSC absorbance at wavelength 570 nm was measured by microplate reader. […] The supernatant was obtained and the type I collagen content was measured according to the instructions in the type I collagen kit.

mice [3] = assay: Analgesic effect, acetic acid writhing test in mice; format: in vivo; settings: intragastric 20 mg/kg for 3 days, 0.6% acetic acid ip, writhing within 15 minutes
Method: Method: Healthy mice were selected, each group containing 10 mice. The mice were intragastric administrated with 20 mg/kg testing compositions or control compositions for consecutive 3 days. 30 minutes after the last administration, the mice were intra-peritoneally (ip) injected with 10 ml/kg of 0.6% acetic acid. The writhing numbers of the mice within 15 minutes were recorded. The analgesic percentage was calculated.
Analgesic percentage(%)=(writhing numbers of blank control group−writhing numbers of testing group)/writhing numbers of blank control group×100%

[4] = test system: quails of fat arteriosclerosis model; assay: Anti-atherosclerosis effect, serum TC and TG in quails; format: in vivo; settings: quail serum, four weeks
From the text: (§3) Testing composition preparation: ferulic acid and oxymatrine were mixed in a mole ratio 1:1 to prepare a solution.
(§4) Methods: According to the method described in reference (Liu et al., 2005. Chinese journal of arteriosclerosis, 13(3): 305-308).
(§5) Test method: 140 male quails were selected and randomly separated into 7 groups: normal control group (healthy quails), modeling control group (fat arteriosclerosis model which is set up by the methods described in reference), positive control group (fat arteriosclerosis model is treated by luofatading 10 mg/kg), ferulic acid control group (tested with ferulic acid 40 mg/kg), large/medium/small dosage testing groups ([…], of testing compositions). Except the normal control group, all the other 6 groups were fat arteriosclerosis models.
(§6) The quails were daily intragastric administrated with testing compositions or controls once per day for consecutive four weeks. The fourth weekend after administration, the content of serum lipid from 10 quails of each group was detected. In the end, pathological examination was conducted on the surviving quails.
Method to detect the content of serum lipid: at the end of the 4th week after administration, feeding was stopped for 12 hours. 2 ml blood was collected from jugular vein. The serum was separated. The contents of serum cholesterol (TC) and triglyceride (TG) were measured according to an enzymatic method.

mice [5] = assay: Mice gastrointestinal motility, carbon powder propulsion; format: in vivo; settings: 3 days
From the text: Materials and reagents: oxymatrine injection (Xinhua Inc., batch No.: 0306003), neostigmine methylsulfate injection (Tianfu Inc., batch No.: 0404131), atropine sulfate injection (Tianfu Inc., batch No.: 0409271), morphine sulfate controlled-release tablets (Mengdi Inc., batach No.: 04082312).
Animals and feeding environment: healthy SPF grade Kunming mice, half male, weight 18-22 g, provided by Lvye Inc., certificate No.: SYXK(LU)20030020. Every 10 mice were placed in one cage. Mice feeding was provided by Shandong experimental animal center. Experimental mice fed in barrier system with filtered air, at the room temperature of 18-22° C. and humidity at 50-60%, with 12 hours light radiation per day.
Methods: The mice were intragastric administrated with testing compositions or controls for consecutive 3 days. Before the last administration, the mice were stopped feeding and supplied with water for 16 hours. 30 minutes after the last administration, the mice were intragastric administrated with 0.2 ml 5% activated carbon suspension. 20 minutes later, the mice were sacrificed by cervical dislocation. The abdominal cavity was opened and bowel was collected from pylorus to ileocecal. The bowel was placed on a tray and straightened. The total length of small intestine was measured, as well as the advanced distance of carbon powder in the intestine from pylorus. The percentage of carbon powder propulsion was calculated by the following formula: percentage of carbon powder propulsion=advanced distance of carbon powder/total length of small intestine×100%

[6] = test system: quails of fat arteriosclerosis model; assay: Anti-atherosclerosis effect, aortic atherosclerosis degree of quails (pathological examination); format: in vivo; design: Total atherosclerosis score: scale not given here
From the text: as §3, §4, §5, §6

mice [7] = assay: Acute toxicity in mice; format: in vivo; settings: 10 mice, 72 hours
Method: Methods: Healthy mice were selected, each group containing 10 mice. The mice were intragastric administrated with testing compositions or controls once; and observed for 72 hours. The deaths were recorded.

hepatic stellate cells = assay: Proliferation of hepatic stellate cells (MTT absorbance); format: cell-based, rats; settings: 50 μmol/l, 48 hours, 570 nm, mean ± SD
Method: as §1, §2

[8] = target: T1, blood acetylcholinesterase (Rattus norvegicus, UniProt P37136); assay: Anticholinesterase effect on rat blood acetylcholinesterase; format: biochemical, rats
T1 construct: 0.05 ml each diluted composition was pipetted into 0.5 ml diluted rats blood; from tissue; host or cells: rat whole blood, anticoagulated, diluted 10 times with physiological saline
T1 sequence (P37136 32-614): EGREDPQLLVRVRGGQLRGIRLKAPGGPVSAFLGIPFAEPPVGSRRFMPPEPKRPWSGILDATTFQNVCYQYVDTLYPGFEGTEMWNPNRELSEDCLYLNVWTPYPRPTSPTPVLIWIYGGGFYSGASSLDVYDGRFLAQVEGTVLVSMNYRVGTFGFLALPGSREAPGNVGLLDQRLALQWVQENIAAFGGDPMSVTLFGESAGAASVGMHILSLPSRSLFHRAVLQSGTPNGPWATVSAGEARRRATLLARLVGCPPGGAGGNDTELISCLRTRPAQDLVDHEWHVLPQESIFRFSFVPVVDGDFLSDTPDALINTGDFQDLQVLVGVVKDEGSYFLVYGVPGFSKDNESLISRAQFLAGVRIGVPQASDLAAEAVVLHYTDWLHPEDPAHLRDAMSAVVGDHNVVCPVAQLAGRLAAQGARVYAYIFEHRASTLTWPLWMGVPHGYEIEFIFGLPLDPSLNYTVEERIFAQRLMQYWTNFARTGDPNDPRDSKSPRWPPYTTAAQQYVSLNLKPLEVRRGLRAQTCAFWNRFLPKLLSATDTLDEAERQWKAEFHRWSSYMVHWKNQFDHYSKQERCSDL
Method: Methods: 5 ml blood was collected from healthy rats, stored in tubes containing anticoagulants and diluted 10 times with physiological saline (ready for use). The testing compositions were diluted with physiological saline to 0, 5, 10, 20, 40, 80, 160, 320, 640 mg/l concentrations, respectively. 0.05 ml each diluted composition was pipetted into 0.5 ml diluted rats blood, mixed thoroughly and incubated at 37° C. for 1 hour. The activity of blood acetylcholinesterase was measured according to the acetylcholinesterase kit. The half inhibitory concentration (IC50) was calculated.

[9] = test system: rheumatoid arthritis patients; settings: 30 patients, 200 mg tablets daily, 5 days
Method: Testing composition preparation: The gel containing ferulic acid and matrine (mole ratio 1:1) were prepared according to a pharmaceutical method.
Methods: 30 pairs of rheumatoid arthritis patients; 30 patients participating in the control group with daily administration of 200 mg naproxen tablets; 30 patients participating in the testing group with daily application on the affected parts of the testing gel containing ferulic acid and matrine. Both groups were administered for consecutive 5 days.
Effect observations: obviously effective if both swelling and aches disappear; effective if aches disappear with limited swelling; invalid if both swelling and aches exist.

COc1cc(/C=C\C(=O)O)ccc1O [Ferulic acid, 4-hydroxy-3-methoxy cinnamic acid]
Effective (number of patients) (patients with rash): 3
Invalid (number of patients) (patients with rash): 7
Ear swelling percentage (mice [1]): 164.6%
Type I collagen content [2]: 64.36 ± 11.22 µg/L
Analgesic percentage (mice [3]): 18.30%
TC ([4]; 40 mg/kg intragastric daily): 16.88 ± 6.31 mmol/L
TG ([4]; 40 mg/kg intragastric daily): 3.52 ± 0.73 mmol/L
Percentage of carbon powder propulsion (mean ± SD, %) (mice [5]; intragastric 20 mg/kg): 54.33 ± 10.22%
Numbers of quails in aortic atherosclerosis degree 0 ([6]; 40 mg/kg): 1
Numbers of quails in aortic atherosclerosis degree 1 ([6]; 40 mg/kg): 4
Numbers of quails in aortic atherosclerosis degree 2 ([6]; 40 mg/kg): 6
Numbers of quails in aortic atherosclerosis degree 3 ([6]; 40 mg/kg): 3
Numbers of quails in aortic atherosclerosis degree 4 ([6]; 40 mg/kg): 0
Total atherosclerosis score ([6]; 40 mg/kg): 25
Death cases (mice [7]; single intragastric 1000 mg/kg): 0
Average absorbance (hepatic stellate cells): 0.42 ± 0.24

CC[C@H](C)C(=O)O[C@H]1C[C@@H](C)C=C2C=C[C@H](C)[C@H](CC[C@@H]3C[C@@H](O)CC(=O)O3)[C@H]21 [Luofatading]
TC ([4]; 10 mg/kg intragastric daily): 10.19 ± 2.07 mmol/L
TG ([4]; 10 mg/kg intragastric daily): 1.68 ± 0.36 mmol/L
Numbers of quails in aortic atherosclerosis degree 0 ([6]; 10 mg/kg): 0
Numbers of quails in aortic atherosclerosis degree 1 ([6]; 10 mg/kg): 6
Numbers of quails in aortic atherosclerosis degree 2 ([6]; 10 mg/kg): 8
Numbers of quails in aortic atherosclerosis degree 3 ([6]; 10 mg/kg): 2
Numbers of quails in aortic atherosclerosis degree 4 ([6]; 10 mg/kg): 0
Total atherosclerosis score ([6]; 10 mg/kg): 28

O=C1CCC[C@@H]2[C@H]3CCCN4CCC[C@@H](CN12)[C@@H]34 [Matrine, matrine]
Death cases (mice [7]; single intragastric 500 mg/kg): 10

CN(C)C(=O)Oc1cccc([N+](C)(C)C)c1 [Neostigmine, neostigmine]
Percentage of carbon powder propulsion (mean ± SD, %) (mice [5]; intragastric 4 mg/kg): 68.55 ± 4.80 %
IC50 ([8]; diluted rat blood, 37° C., 1 hour, read-out: IC50 (converted)): 1640 µM

O=C1CCC[C@@H]2[C@H]3CCC[N+]4([O-])CCC[C@@H](CN12)[C@@H]34 (stereo partly drawn) [Oxymatrine, oxymatrine]
Effective (number of patients) (patients with rash): 10
Ear swelling percentage (mice [1]): 133.4%
Type I collagen content [2]: 63.42 ± 9.76 µg/L
Analgesic percentage (mice [3]): 29.98%
Percentage of carbon powder propulsion (mean ± SD, %) (mice [5]; intragastric 10 mg/kg): 58.85 ± 13.22%
Percentage of carbon powder propulsion (mean ± SD, %) (mice [5]; intragastric 20 mg/kg): 67.49 ± 11.68 %
IC50 [8]: 2780 µM
Average absorbance (hepatic stellate cells): 0.39 ± 0.17

O=C1C=CC[C@@H]2[C@H]3CCCN4CCC[C@@H](CN12)[C@@H]34 [Sophocarpine, sophocarpine]
Death cases (mice [7]; single intragastric 500 mg/kg): 10

COc1ccc2cc([C@H](C)C(=O)O)ccc2c1 [naproxen]
Effective cases [9]: 11 cases
Obviously effective cases [9]: 12 cases
Total effective percentage [9]: 76.7%
